This is an account of results in US8143237B2, “Anti-cancer drugs, and uses relating for malignant melanoma and other cancers” (Kasina Laila Innova Pharmaceuticals Private Limited, priority 2009, dated 2012).

For series [1], the system named is A375 human melanoma xenograft. The series can be described thus: A375 human melanoma xenograft model of nu/nu BALB/c nude mice. Format: in vivo, mouse. The settings on record: 25 mg/kg daily intra-peritoneal, twenty one days, tumor volume, p=0.04322. As for the experimental part: To further substantiate the anti-melanoma efficacy of the Compound 1, this compound was tested for its anti-melanoma efficacy in A375 human melanoma xenograft model of nu/nu BALB/c nude mice. The animals of 6-8 weeks age (body weight 18-22 g) were used in this study. Animals study protocols were approved by Institutional Ethics Committee (IAEC). All the studies were performed in compliance with the Committee for the Purpose of Control and Supervision of Experiments on Animals (CPCSEA) guidelines and OECD guidelines. Animals were allowed free access to sterile standard rodent diet and provided with charcoal filtered and UV exposed water ad libitum. The animals were housed in a sterile room and were located individually in ventilated cages. The room was maintained at a controlled temperature (24-26° C.), humidity (45-70%), and 12 h/12 h of light/dark cycle.
To induce the melanoma tumor, sub-confluent A375 human melanoma cells were harvested by brief trypsinization and 1×10^6 cells were injected subcutaneously in 0.2 ml phosphate-buffered saline. Drug treatment was started after development of palpable tumors (6-7 days after implantation of the cells). At this point the tumor take rate was 100%. […] After twenty one days of treatment, the animals were sacrificed by CO2 inhalation and tumors growth was measured by the following formula (Friedman H S et al., Mol Cancer Ther 2002; 1:943-948). […]

Another series deals with human plasma protein. The settings on record: at therapeutic concentrations; cited from earlier work.
The conditions of series [2]: cited from earlier work.
Where [3] appears, read: patient with renal and hepatic dysfunctions.

The structures appear in SMILES notation. Where two headings read alike, the source gives them in different places.

Usually melting point stands for the temperature of the solid-liquid transition. In turn, `Cc1[se]c(C(N)=O)cc1/N=N/N(C)C` [Compound 1, 4-[(dimethylamino)diazenyl]-5-methylselenophene-2-carboxamide] registered a melting point of 170 to 172 °C. The “Inhibition of melanoma tumor growth, A375 human melanoma xenograft model of nude mice” value in series [1] came to 46.52%.
Turning to `CN(C)N=Nc1[nH]cnc1C(N)=O` [DTIC, 5-(3,3-dimethyl-1-trizeno)-imidazole-4-carboxamide, reference compound], the “Binding to human plasma protein” value with human plasma protein is given as “not appreciably bound”. Besides, in series [2] (biphasic disappearance), the “Initial half life of disappearance from plasma” value was 19 min. For the same compound, the “Average cumulative excretion of unchanged drug in the urine” value in series [2] (in six hours) is 40 % of the injected dose. In series [2] (setting [3]), the “Initial half life of disappearance from plasma” value was 55 min and the “Terminal half life of disappearance from plasma” value is 432 min.
